{
  "source": "patent US9578878B2",
  "about": "“Antimicrobial efficacy of an oregano oil and caprylic acid blend” (Kemin Industries, Inc., priority 2014, dated 2017)",
  "key": {"[1]": {"tested_on": "Pseudomonas aeruginosa (ATCC #9027)", "experiment": "Microtiter assay, MIC to inhibit 90% growth", "type": "cell-based", "details": "24 hours, n = 3", "description": "(§1) For assays to find minimum inhibitory concentrations, all treatments were diluted in 10% DMSO and 0.5% Tween 80 to stabilize the samples.\n(§2) Microorganisms Escherichia coli (ATCC #8739), Streptococcus sanguinis (ATCC #BAA-1455), Salmonella enteria subsp. enterica (ex Kauffmann and Edwards) Le Minor and Popoff serovar Typhimurium (ATCC #14028), Staphylococcus aureus (ATCC #6538), Pseudomonas aeruginosa (ATCC #9027), and Candida albicans (ATCC #10231) were obtained from a −80° C. internal stock culture. Aspergillus brasiliensis (ATCC #16404) was obtained from an internal stock solution culture stored at 4° C. E. coli, S. enterica S. aureus, and P. aeruginosa were grown in tryptic soy broth (TSB) and incubated at 37° C. for 24 h. S. sanguinis was grown in brain heart infusion broth (BHI). A. brasiliensis was plated on Sabourand dextrose agar (SDA) and incubated at 25° C. for 5-7 days. C. albicans was grown in Sabourand dextrose broth (SDB) and incubated at 25° C. for 48 h.\n(§3) A. brasiliensis was harvested by adding 18 mL sterile saline to the plate and agitating the mold from the agar with a sterile inoculating loop. The inoculum was collected upon agitation. All suspended microbes were diluted with the same type of broth media used to grow each organism until an inoculum in the range of 10^6 CFU/mL was achieved. The inoculum concentration was determined by plate count method. Each strain was identified by plating on the appropriate growth media, E. coli, S. aureus, and P. aeruginosa on tryptic soy agar (Bacto, BD Sciences, Manassas, Va.) and C. albicans and A. brasiliensis on Sabrouand dextrose agar, to ensure there was no contamination of the inoculum.\n(§4) Microtiter Assay. A microtiter assay was completed E. coli, S. aureus, P. aeruginosa, S. enteria, S. sanguinis, and C. albicans. Briefly, 10^6 cfu/ml preparations of each organism were made and enumerated using a Petroff-Hausser counting chamber. A 100 μl aliquot of the inoculums was dispensed into microtiter plate wells and a 100 μl aliquot of treatment was dispensed into the same wells. Two separate set of wells were prepared as positive and negative controls, with the positive wells containing 100 μl test organism in growth media and 100 μl sterile phosphate buffer and with the negative control wells containing 100 μl of the same growth media and 100 μl sterile phosphate buffer. The plates were incubated overnight at the appropriate temperature for each organism. A plate reader was used to track the kinetic growth curve using 405 nm and […]. The last time point at 24 hours was averaged and used to determine MIC90. Each treatment was conducted in triplicate wells."}, "[2]": {"tested_on": "Candida albicans (ATCC #10231)", "experiment": "Microtiter assay, MIC to inhibit 90% growth", "type": "cell-based", "details": "24 hours, n = 3", "description": "as §1, §2, §3, §4"}, "[3]": {"tested_on": "Streptococcus sanguinis (ATCC #BAA-1455)", "experiment": "Microtiter assay, MIC to inhibit 90% growth", "type": "cell-based", "details": "24 hours, n = 3", "description": "as §1, §2, §3, §4"}, "[4]": {"tested_on": "Escherichia coli (ATCC #8739)", "experiment": "Microtiter assay, MIC to inhibit 90% growth", "type": "cell-based", "details": "24 hours, n = 3", "description": "as §1, §2, §3, §4"}, "[5]": {"tested_on": "Staphylococcus aureus (ATCC #6538)", "experiment": "Microtiter assay, MIC to inhibit 90% growth", "type": "cell-based", "details": "24 hours, n = 3", "description": "as §1, §2, §3, §4"}, "Salmonella enterica": {"tested_on": "Salmonella enterica", "experiment": "Microtiter assay, MIC to inhibit 90% growth", "type": "cell-based", "details": "24 hours, n = 3", "description": "as §1, §2, §3, §4"}, "A. brasiliensis": {"tested_on": "A. brasiliensis", "experiment": "Poison agar assay", "type": "cell-based, Aspergillus brasiliensis", "description": "as §2, §3\nA poison agar assay was completed for A. brasiliensis. Potato dextrose agar was used as the plated medium. Inocula at 10^5 cfu/ml were prepared and counted using a Petroff-Hausser counting chamber. Each treatment was added directly into the control without DMSO and Tween 80 as used in the previous experiments. The diameter of no growth around a 6 mm blank disk after incubation at 25° C. for 72 hrs was compared to the untreated control."}},
  "data": [
    {"smiles": "Cc1ccc(C(C)C)cc1O", "note": "[Carvacrol, carvacrol]", "values": [
      {"measurement": "Minimum Inhibitory Concentration (MIC) to inhibit 90% growth, P. aeruginosa", "setting": "[1]", "value": ">0.1", "unit": "%"},
      {"measurement": "Minimum Inhibitory Concentration (MIC) to inhibit 90% growth, C. albicans", "setting": "[2]", "value": 0.10, "unit": "%"},
      {"measurement": "Minimum Inhibitory Concentration (MIC) to inhibit 90% growth, S. sanguinis", "setting": "[3]", "value": 0.05, "unit": "%"},
      {"measurement": "Minimum Inhibitory Concentration (MIC) to inhibit 90% growth, E. coli", "setting": "[4]", "value": 0.10, "unit": "%"},
      {"measurement": "Minimum Inhibitory Concentration (MIC) to inhibit 90% growth, S. aureus", "setting": "[5]", "value": 0.05, "unit": "%"},
      {"measurement": "Minimum Inhibitory Concentration (MIC) to inhibit 90% growth, S. enterica", "setting": "Salmonella enterica", "value": 0.05, "unit": "%"},
      {"measurement": "% Inhibition from Control", "setting": "A. brasiliensis; 0.005% in agar", "value": 15.10, "unit": "%"},
      {"measurement": "Diameter of Growth", "setting": "A. brasiliensis; 0.005% in agar", "value": 6.50, "unit": "mm"},
      {"measurement": "% Inhibition from Control", "setting": "A. brasiliensis; 0.010% in agar", "value": 64.70, "unit": "%"},
      {"measurement": "Diameter of Growth", "setting": "A. brasiliensis; 0.010% in agar", "value": 2.70, "unit": "mm"},
      {"measurement": "% Inhibition from Control", "setting": "A. brasiliensis; 0.030% in agar", "value": 100.00, "unit": "%"},
      {"measurement": "Diameter of Growth", "setting": "A. brasiliensis; 0.030% in agar", "value": 0.00, "unit": "mm"},
      {"measurement": "MIC90 in the poison agar assay", "setting": "A. brasiliensis; potato dextrose agar, 25° C., 72 hrs", "value": 0.03, "unit": "%"}
    ]}
  ]
}
